Here are results for 2 compounds from patent publication US9592225B2, “Crystalline N-[5-(aminosulfonyl)-4-methyl-1,3-thiazol-2-yl]-N-methyl-2-[4-(2-pyridinyl)phenyl]acetamide mono mesylate monohydrate having a specific particle size distribution range and a specific surface area range for use in pharmaceutical formulations” (AICURIS ANTI-INFECTIVE CURES GMBH, priority 2011, dated 2017).

A short description of data set [1]: Safety and tolerability in phase I trials. The conditions noted are these: healthy male volunteers, single and multiple dose, up to the highest dose tested. Type of data set: in vivo, human. The method, then: The results were compared with the effective concentration of the free base of N-[5-(aminosulfonyl)-4-methyl-1,3-thiazol-2-yl]-N-methyl-2-[4-(2-pyridinyl)phenyl]acetamide in cell culture and correlated to exposures reached in healthy male volunteers in single and multiple dose phase I trials (see FIGS. 9-13).
(§1) In healthy male volunteers these plasma concentrations were covered by a single dose of 40 mg as free base equivalent to the crystalline mono mesylate monohydrate salt of N-[5-(aminosulfonyl)-4-methyl-1,3-thiazol-2-yl]-N-methyl-2-[4-(2-pyridinyl)phenyl]acetamide (see FIG. 10) and at steady state by daily doses of 25 mg as free base equivalent (see FIG. 11) for 21 days.

Another data set concerns HSV. Briefly: Murine HSV skin infection model. Type of data set: in vivo. The conditions noted are these: oral doses of 5 mg/kg or higher once daily for four days; data not shown. The method, then: To assess the pharmacokinetic/pharmacodynamic profile the effective dose of the free base of N-[5-(aminosulfonyl)-4-methyl-1,3-thiazol-2-yl]-N-methyl-2-[4-(2-pyridinyl)phenyl]-acetamide was validated in a murine HSV skin infection model and associated plasma concentrations were determined (data not shown).
as §1

The nature of data set [2]: Multiple-dose escalation and steady-state pharmacokinetics in healthy volunteers. The format is in vivo, human. Particulars: for AUGτ: day 21 steady state, n=12. The source says: For the three doses of the mono mesylate monohydrate salt of N-[5-(aminosulfonyl)-4-methyl-1,3-thiazol-2-yl]-N-methyl-2-[4-(2-pyridinyl)phenyl]acetamide in formulation according to example 1, Table 2, wherein the particle size distribution is preferably defined by d(0.1) from 2 to 100 μm, d(0.5) from 30 to 210 μm and d(0.9) from 70 to 400 μm with a specific surface area of the particles less than 1.0 m^2/g, and more preferably defined by d(0.1) from 10 to 75 μm, d(0.5) from 100 to 175 μm, d(0.9) from 200 to 350 μm with a specific surface area of the particles less than 0.3 m^2/g, investigated (5, 25, and 100 mg as free base equivalent; once per day oral administration, […]), the individual concentration-time curves of the free base N-[5-(aminosulfonyl)-4-methyl-1,3-thiazol-2-yl]Nmethyl-2-[4-(2-pyridinyl)phenyl]acetamide at day 1 (after the first administration) were very similar in their general shape and slope to those profiles obtained in the single dose escalation trial (see Example 6).
At steady state, there was a low inter-individual variability of minimal or “trough” concentrations with CVs (coefficient of variations) between 16.7 and 21.7% (day 21). For all doses, the individual and mean concentration-time curves of the free base of N-[5-(aminosulfonyl)-4-methyl-1,3-thiazol-2-yl]-N-methyl-2-[4-(2-pyridinyl)phenyl]acet-amide at day 21 were very similar in their shape and slope to those profiles obtained at day 1.
Table 10: Steady state pharmacokinetic parameters of the free base N-[5-(aminosulfonyl)-4-methyl-1,3-thiazol-2-yl]-N-methyl-2-[4-(2-pyridinyl)phenyl]acetamide at day 21 after daily administrations of 5, 25, or 100 mg as free base equivalent of the mono mesylate monohydrate salt of N-[5-(aminosulfonyl)-4-methyl-1,3-thiazol-2-yl]-N-methyl-2-[4-(2-pyridinyl)phenyl]acetamide in formulation according to example 2, Table 2, wherein the particle size distribution is preferably defined by d(0.1) from 2 to 100 μm, d(0.5) from 30 to 210 μm and d(0.9) from 70 to 400 μm with a specific surface area of the particles less than 1.0 m^2/g, and more preferably defined by d(0.1) from 10 to 75 μm, d(0.5) from 100 to 175 μm, d(0.9) from 200 to 350 μm with a specific surface area of the particles less than 0.3 m^2/g, to healthy volunteers (n=12 per dose).

A short description of a further data set: Thermostability. Particulars: compared to the mesylate salt. The format is physicochemical. An excerpt:
A clear advantage of the N-[5-(aminosulfonyl)-4-methyl-1,3-thiazol-2-yl]-N-methyl-2-[4-(2-pyridinyl)phenyl]acetamide mono mesylate monohydrate, wherein the PSD, PSR and SSA are as defined herein, is its proven long-term stability. Therefore, the inventive N-[5-(aminosulfonyl)-4-methyl-1,3-thiazol-2-yl]-N-methyl-2-[4-(2-pyridinyl)-phenyl]acetamide mono mesylate monohydrate, which is characterized by the PSD, PSR and SSA as disclosed herein, is better suited for the preparation of long-term stable tablets compared to the free base form of N-[5-(aminosulfonyl)-4-methyl-1,3-thiazol-2-yl]-N-methyl-2-[4-(2-pyridinyl)phenyl]acetamide.

Data set [3] is described as follows: Single-dose escalation and pharmacokinetics in human volunteers. The format is in vivo. The source says: Exposure of the free base form of N-[5-(aminosulfonyl)-4-methyl-1,3-thiazol-2-yl]-N-methyl-2-[4-(2-pyridinyl)-phenyl]acetamide to the human body may be measured by high pressure liquid chromatography (HPLC) by looking at different pharmacokinetic parameters in suitable bodily fluids such as for instance blood plasma and urine, the most common parameters being the Cmax, the so-called area under the curve (AUC), and the terminal half-life (t1/2Z). Hereto, the person skilled in the art understands that said parameters are determined by using adequate bioanalytical methods with adequate sensitivity, specificity, ruggedness, stability and repeatability, as for instance a qualified liquid chromatography triple quad mass spectrometry based method coupled with a suitable extraction method for the separation of the analyte from, e.g. the blood plasma.
Therefore, pharmacokinetic studies in human subjects were undertaken following both single and multiple dose administrations of the crystalline mono mesylate monohydrate salt of N-[5-(aminosulfonyl)-4-methyl-1,3-thiazol-2-yl]-N-methyl-2-[4-(2-pyridinyl)phenyl]-acetamide, wherein the particle size distribution is preferably defined by d(0.1) from 2 to 100 μm, d(0.5) from 30 to 210 μm and d(0.9) from 70 to 400 μm with a specific surface area of the particles less than 1.0 m^2/g, and more preferably defined by d(0.1) from 10 to 75 μm, d(0.5) from 100 to 175 μm, d(0.9) from 200 to 350 μm with a specific surface area of the particles less than 0.3 m^2/g.
Single oral doses of the crystalline mono mesylate monohydrate salt of N-[5-(aminosulfonyl)4methyl1,3thiazol-2-yl]-N-methyl-2-[4-(2-pyridinyl)phenyl]acetamide using the formulations according to example 2, Table 2, were administered to six volunteers per dose step. The overall shape of the plasma concentrations vs. time profiles were similar across all doses (see FIG. 9 and FIG. 12). […]
AUC0-∞: Area under the analyte vs. time concentration from time of administration up to infinity, calculated as
[formula] wherein A0-last is defined as the area under the analyte vs. time concentration up to time of the last qualifiable concentration, calculated by linear up/log down summation and Clast is defined as last quantifiable observed analyte concentration. λz is the apparent terminal elimination rate constant, determined by linear regression of terminal points of In-linear analyte concentration-time curve.
Cmax is the maximal observed analyte concentration and tmax is the time to reach Cmax; t1/2z is defined as the apparent terminal elimination half-life, calculated as
MRT: Mean Residence Time; calculated AUMC divided by AUC, wherein AUMC is the area under the first moment of the concentration-time curve from zero up to ∞ with extrapolation of the terminal phase and AUC is the area under the concentration-time curve from zero up to ∞ with extrapolation of the terminal phase. […]

On to `Cc1nc(N(C)C(=O)Cc2ccc(-c3ccccn3)cc2)sc1S(N)(=O)=O` [free base, N-[5-(aminosulfonyl)-4-methyl-1,3-thiazol-2-yl]-N-methyl-2-[4-(2-pyridinyl)phenyl]acetamide], for which the safety and tolerability result in data set [1] is “safe and well tolerated”. Moreover, the “suppression of murine HSV skin infection” value in the data set with HSV is “completely suppressed the murine infection”.
Take `CS(=O)(=O)O.Cc1nc(N(C)C(=O)Cc2ccc(-c3ccccn3)cc2)sc1S(N)(=O)=O` [mono mesylate monohydrate, N-[5-(aminosulfonyl)-4-methyl-1,3-thiazol-2-yl]-N-methyl-2-[4-(2-pyridinyl)-phenyl]acetamide mono methanesulfonic acid monohydrate]: the AUGτ in data set [2] (human, 5 mg free base equivalent once daily oral) was 5094 ng·h/mL; in data set [2] (human, 25 mg free base equivalent once daily oral), 23430 ng·h/mL; in data set [2] (human, 100 mg free base equivalent once daily oral), 108800 ng·h/mL. Besides, the “relation of steady-state exposure (Ctrough, AUCτ, Cmax,ss, Cav) to dose” value in data set [2] (human, 5, 25, 100 mg once daily) was “dose-proportional increase”. Further, the “relation of AUC0-24 h and Cmax at day 1 to dose” value in data set [2] (human, 5, 25, 100 mg, after the first administration) is “dose-proportional increases”. Also, the “accumulation ratio R for both AUC and Cmax” value in data set [2] (human, all doses applied (5, 25, 100 mg once daily)) was roughly 5. Moreover, in “Thermostability”, the thermostability result is “up to 170 °C”. For the same compound, in data set [3] (single dose of 80 mg as free base equivalent, after normalization to body weight), the “gender-related difference in exposure” value is given as “No clinical relevant gender-related difference”. For the same compound, the “relation of maximum plasma concentrations to dose” value in data set [3] (single doses from 5 mg to 400 mg as free base equivalent) is given as “linearly related to doses”. In addition, the “relation of AUC0-∞ to dose” value in data set [3] (single doses from 5 mg to 480 mg as free base equivalent) is reported as “dose-proportional increase”. In addition, in data set [3] (single oral dose 480 mg as free base equivalent), the “mean maximum blood plasma concentration (mean Cmax) of the free base” value was 6921 ± 2190 ng/mL. Besides, in data set [3] (single oral dose 600 mg free base equivalent, mean, n=6), the “AUC0-∞” value worked out at 320800 ng·h/mL.
